Laboratory results: US8524765B2, “Compounds that modulate intracellular calcium” (Calcimedica, Inc., priority 2007, dated 2013)

Columns and labels:
[1] = tested on: RBL-2H3 cells; assay: TNF-α release assay (ELISA); assay type: cell-based; conditions: Rattus norvegicus; RBL-2H3 cells induced with TG/TPA; FIG. 3; read-out: IC50 for inhibition of TNF-alpha release
Procedure: To assess degranulation and cytokine release, RBL-2H3 cells were plated and stimulated with 20 nM thapsigargin/20 nM TPA for 20 hr in the presence or absence of compound of Formula (I) or Formula (II). Media was collected and assayed for the release of β-hexosaminidase or for the release of the inflammatory mediator cytokine TNF-α. The β-hexosaminidase enzymatic assay was performed by adding 200 μL 1 mM p-nitrophenyl-acetyl-glucosamide substrate (Sigma #N9376) in 0.05M Na Citrate (pH 4.5) to 50 μL of conditioned medium, incubating for 60 min at 37° C., then adding 500 μL 0.05M Na carbonate, 0.05M Na bicarbonate pH 10.5, mixing thoroughly, and reading the absorbance at 405 nm in a BioRad plate reader. The TNF-α release assay was performed using the Rat Tumor Necrosis Factor-a Ultrasensitive ELISA Kit from BioSource.

[2] = tested on: rat T cells; assay: IL-2 secretion in rat T cells; assay type: cell-based; conditions: T-cell, FIG. 5, read-out: IC50 for inhibition of IL-2 secretion
[3] = tested on: primary human T cells; assay: Con A-induced cell proliferation of primary human T cells; assay type: cell-based; conditions: FIG. 6, read-out: IC50 for inhibition of Con A-induced cell proliferation
[4] = tested on: Jurkat T cells; assay: IL-2 secretion from Jurkat T cells (PHA+TPA, ELISA); assay type: cell-based
Procedure: To measure IL-2 secretion from Jurkat T cells, cells were plated in a 96 well plate at a density of 1.5×10^5 cells/well. Cells were stimulated with 2.5 μg/ml PHA lectin+80 nM TPA for 20 hr in the presence or absence of a compound of Formula (I) or Formula (II). The medium was then collected and analyzed for IL-2 levels by ELISA (BioSource) according to the manufacturer's protocols.

[5] = biological target: T1, hOrail/hSTIM1 (Homo sapiens, UniProt Q96D31); assay: Monster ICRAC in cells stably overexpressing hOrail/hSTIM1; assay type: cell-based; conditions: FIG. 15
T1 construct: expressed in transfected cells

[6] = Skin transplant rejection in Lewis rats; assay type: in vivo, rat; conditions: FIG. 18
[7] = DNBS-induced colitis in rats (ulcerative colitis model for IBD); assay type: in vivo, rat; conditions: FIG. 20
Procedure: Procedure: Male Wistar rats weighing 200±20 g are fasted for 24 hours prior to use. Distal colitis is induced by intra-colonic instillation of DNBS (2,4-dinotrobenzene sulfonic acid, 20 mg in 0.5 ml ethanol 30%) with a catheter of 12 cm in length, followed by gentle injection of air (2 ml) through the catheter to ensure that the solution remain in the colon. The animals are divided into groups of 5 each. Test substance and vehicle are administered either daily or twice daily by appropriate route of administration 24 hour and 1 hour before DNBS instillation and then for 6 consecutive days thereafter. One normal control group is treated with 0.9% NaCl alone without DNBS challenge. […] During the experiment, body weight, fecal occult blood and stool consistency are monitored daily. Furthermore, when the abdominal cavity is opened before removal of the colon, adhesions between the colon and other organs are noted as is the presence of colonic ulceration after removal and weighing of each colon (a macroscopic damage score is recorded according to established score criteria). The colon-to-body weight ratio is calculated according to the formula: Colon (g)/BW×100. The “Net” increase in ratio of Vehicle-control+DNBS group relative to Vehicle-control group is used as a base for comparison with individual treated groups and expressed as “Dec. […]

T1 sequence (Q96D31 whole entry): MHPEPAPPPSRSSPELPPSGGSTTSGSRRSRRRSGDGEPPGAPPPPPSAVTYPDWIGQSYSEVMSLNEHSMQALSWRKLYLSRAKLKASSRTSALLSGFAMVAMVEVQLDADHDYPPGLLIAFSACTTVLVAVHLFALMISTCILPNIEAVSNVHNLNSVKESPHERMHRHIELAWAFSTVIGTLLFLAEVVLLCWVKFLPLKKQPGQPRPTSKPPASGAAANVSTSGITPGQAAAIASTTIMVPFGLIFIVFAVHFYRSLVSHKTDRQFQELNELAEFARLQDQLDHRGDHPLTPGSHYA
T1 sequence (Q13586 23-685 partner): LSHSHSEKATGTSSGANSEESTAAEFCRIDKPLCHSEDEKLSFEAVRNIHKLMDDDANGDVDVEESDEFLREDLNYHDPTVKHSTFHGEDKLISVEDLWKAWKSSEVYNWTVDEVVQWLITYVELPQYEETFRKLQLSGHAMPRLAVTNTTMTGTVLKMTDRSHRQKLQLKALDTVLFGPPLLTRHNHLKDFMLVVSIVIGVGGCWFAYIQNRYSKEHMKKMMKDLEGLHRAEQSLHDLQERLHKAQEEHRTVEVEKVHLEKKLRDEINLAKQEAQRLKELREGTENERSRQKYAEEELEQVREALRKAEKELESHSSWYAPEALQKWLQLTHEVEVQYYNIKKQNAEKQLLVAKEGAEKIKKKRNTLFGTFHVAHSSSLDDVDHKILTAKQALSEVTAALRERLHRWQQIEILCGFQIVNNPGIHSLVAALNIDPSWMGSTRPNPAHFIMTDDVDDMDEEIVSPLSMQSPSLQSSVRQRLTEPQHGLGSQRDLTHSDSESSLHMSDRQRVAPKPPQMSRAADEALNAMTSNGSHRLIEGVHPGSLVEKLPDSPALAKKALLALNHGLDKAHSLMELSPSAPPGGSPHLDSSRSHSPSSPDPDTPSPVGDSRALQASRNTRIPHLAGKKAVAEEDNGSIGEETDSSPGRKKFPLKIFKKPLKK

For `O=C(Nc1scc(-c2ccc(Br)cc2)c1C(=O)O)c1ccc(F)cc1` [Compound 1, 2-(4-fluorobenzamido)-4-(4-bromophenyl)thiophene-3-carboxylic acid], which IC50 [1] is on record?
Its IC50 is 3.3 µM.

And the IC50 [2]?
The IC50 was roughly 2.5 µM.

What about the IC50 [3] of the same molecule?
The IC50 was roughly 3.7 µM.

What about the IC50 ([4]; Homo sapiens, Jurkat T cells stimulated with PHA+TPA, FIG. 7, read-out: IC50 for inhibition of IL-2 release) of the same molecule?
The IC50 was roughly 0.5 µM.

What about the “effect of combination with cyclosporin A on IL-2 secretion” value ([4]; Jurkat T cells stimulated with PHA/TPA, Compound 1 together with cyclosporin A, FIG. 10) of the same molecule?
Its value is “additive effects”.

What about the “effect on Monster ICRAC” value [5] of the same molecule?
Its value is “inhibit”.

And the “rejection of skin transplants” value [6]?
Its value is “delayed rejection”.

What about the “inflammation in the rat ulcerative colitis model for IBD” value [7] of the same molecule?
The value was “inhibition of inflammation”.
